According to paper PMC13372822 (The EMBO Journal, 2026):
Changes are numbered by the printed parent chain.

Experiments:
OXGR1 = OXGR1 (Homo sapiens, UniProt Q96P68); test: cAMP assay, Gi pathway (OXGR1-Gi-cAMP Assay); format: cell-based; design: The full-length human OXGR1 and mutations were fused after the HA signal peptide and Flag tag; HA signal peptide (N); Flag (N); expressed in transfected cells; host or cells: HEK293 (pcDNA3.0, transient electroporation); conditions: OXGR1 WT
Experimental: In brief, cells expressing OXGR1 were seeded in a plate at a density of 1 × 10^6 cells/well and cultured overnight. After 24 h culture, cells were harvested and re-suspended in DMEM containing 500 µM IBMX at a density of 2 × 10^5 cells/mL. Then, cells were plated onto 384-well assay plates at a density of 1000 cells/5 µL/well. Another 5 µL buffer containing compounds at various concentrations was added to the cells, and the incubation lasted for 30 min at 37 °C. Intracellular cAMP level was tested by a LANCE Ultra cAMP kit (PerkinElmer, TRF0264) and EnVision multiplate reader according to the manufacturer’s instructions.

FFAR3 = target: T1, FFAR3 (Homo sapiens, UniProt O14843); test: Calcium mobilization assay, FFAR3 in HEK293 stably expressing Gα16; format: cell-based; conditions: in words; related receptor
T1 construct: expressed in transfected cells; host or cells: HEK293 stably expressing Gα16
T1 sequence (O14843 1-346): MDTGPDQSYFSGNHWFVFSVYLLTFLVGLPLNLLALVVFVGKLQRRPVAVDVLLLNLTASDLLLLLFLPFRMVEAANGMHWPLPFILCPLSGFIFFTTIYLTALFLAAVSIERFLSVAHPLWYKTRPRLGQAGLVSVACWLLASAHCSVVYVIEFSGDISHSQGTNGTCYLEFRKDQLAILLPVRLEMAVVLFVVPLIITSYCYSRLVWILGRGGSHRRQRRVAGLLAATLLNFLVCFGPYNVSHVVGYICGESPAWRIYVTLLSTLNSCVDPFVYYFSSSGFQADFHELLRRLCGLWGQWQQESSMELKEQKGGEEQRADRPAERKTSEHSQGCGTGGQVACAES
Experimental: (§1) HEK293 cells were obtained from ATCC (Manassas, VA, USA) and cultured in DMEM supplemented with 10% (v/v) FBS, 100 mg/L penicillin, and 100 mg/L streptomycin in 5% CO2 at 37 °C. For transient transfection, ~2.5 × 10^6 cells were mixed with 2 µg plasmids in 200 µL transfection buffer, and electroporation was carried out with a Scientz-2C electroporation apparatus (Scientz Biotech, Ningbo, China). The experiments were carried out 24 h after transfection. HEK293 cell lines stably expressing Gα16 were constructed by our laboratory.
(§2) For OXGR1, plasmids were transfected into HEK293 (other receptors were transfected into HEK293 stably expressing Gα16) and seeded at a density of 4 × 10^4 per well into 96-well culture plates and incubated for 24 h at 37 °C in 5% CO2. The next day, Cells were incubated with 2 μM/L Fluo-4 AM in HBSS supplemented with 5.6 mM/L D-glucose and 250 μM/L sulfinpyrazone at 37 °C for 45 min. […] Three independent measurements were repeated, i.e., three different transfections, with three technical replicates performed for each experiment. EC50 and Emax values for each curve were calculated by Prism 8.0 software (GraphPad Software).

[1] = target: T2, SUCR1 mutants (variant named in the endpoint) (Homo sapiens, UniProt Q9BXA5, F285A/L102F); test: Calcium mobilization assay, SUCR1 mutants in HEK293 stably expressing Gα16; format: cell-based; conditions: HEK293;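 further: percent of the maximal response to succinate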
T2 construct: The full-length human SUCR1 and mutations were fused after the HA signal peptide and Flag tag; HA signal peptide (N); Flag (N); expressed in transfected cells; host or cells: HEK293 stably expressing Gα16 (pcDNA6.0, transient electroporation)
T2 sequence (Q9BXA5 1-334 L102F/F285A): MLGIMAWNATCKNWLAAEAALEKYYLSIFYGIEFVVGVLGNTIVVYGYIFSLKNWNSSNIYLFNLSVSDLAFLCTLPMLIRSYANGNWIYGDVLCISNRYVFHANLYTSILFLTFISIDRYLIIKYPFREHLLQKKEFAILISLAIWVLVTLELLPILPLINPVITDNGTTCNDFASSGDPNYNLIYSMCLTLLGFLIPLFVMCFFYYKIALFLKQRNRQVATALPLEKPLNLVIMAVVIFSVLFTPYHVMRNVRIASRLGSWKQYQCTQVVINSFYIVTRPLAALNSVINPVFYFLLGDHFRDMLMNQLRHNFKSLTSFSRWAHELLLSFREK

[2] = test system: OXGR1 mutants (variant named in the endpoint); test: Calcium mobilization assay, OXGR1 mutants in HEK293; conditions: for Emax: each ligand normalized to WT (100%);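 on all read-outs here: human OXGR1 variants transiently expressed in HEK293 cells, with intracellular calcium read out by Fluo-4 AM fluorescence, measured 24 h after transfection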
Experimental: The full-length human SUCR1 and mutations were fused after the HA signal peptide and Flag tag. The constructs were cloned into pcDNA6.0 vector for HEK293 system.
as §1, §2

[3] = target: T3, SUCR1 mutants (variant named in the endpoint) (Homo sapiens, UniProt Q9BXA5, Y248F); test: Calcium mobilization assay, SUCR1 mutants in HEK293 stably expressing Gα16; format: cell-based; conditions: HEK293, SUCR1 Y248F; Emax relative to the SUC;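 further: percent of the maximal response to succinate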
T3 construct: The full-length human SUCR1 and mutations were fused after the HA signal peptide and Flag tag; HA signal peptide (N); Flag (N); expressed in transfected cells; host or cells: HEK293 stably expressing Gα16 (pcDNA6.0, transient electroporation)
T3 sequence (Q9BXA5 1-334 Y248F): T2 sequence (Q9BXA5 1-334 L102F/F285A) with F102L, Y248F, A285F

## O=C(O)CCC(=O)C(=O)O [AKG, α-ketoglutarate]
OXGR1
  activation of Gi signaling: no detectable activation
FFAR3
  activation of FFAR3: no cross-reactivity
[1]
  Emax: 5.5 ± 1%

## C=C(CC(=O)O)C(=O)O [ITA, itaconate]
OXGR1
  activation of Gi signaling: no detectable activation
[2]; OXGR1 D185A
  EC50: > 1000 µM
  Emax: 4.9± 2 WT%
[2]; OXGR1 E97A
  EC50: > 1000 µM
  Emax: 47± 3 WT%
[2]; OXGR1 F113A
  EC50: > 1000 µM
  Emax: 26± 3 WT%
[2]; OXGR1 F113W
  EC50: 21.3 ± 2 µM
  Emax: 86± 2 WT%
[2]; OXGR1 F113W versus WT
  increase in potency by F113W mutation: ~ 2 fold
[2]; OXGR1 F130D
  EC50: > 1000 µM
  Emax: -5.6± 4 WT%
[2]; OXGR1 F130E
  EC50: > 1000 µM
  Emax: -5.3± 3 WT%
[2]; OXGR1 F250A
  EC50: > 1000 µM
  Emax: 2.2± 3 WT%
[2]; OXGR1 F254A
  EC50: > 1000 µM
  Emax: 0.87± 3 WT%
[2]; OXGR1 F257A
  EC50: 52 ± 10 µM
  Emax: 54± 2 WT%
[2]; OXGR1 F257Y
  EC50: 130 ± 40 µM
  Emax: 120± 10 WT%
[2]; OXGR1 H114A
  EC50: > 1000 µM
  Emax: -4.6± 2 WT%
[2]; OXGR1 H114L
  EC50: > 1000 µM
  Emax: -5.6± 5 WT%
[2]; OXGR1 H258A
  EC50: > 1000 µM
  Emax: 3.0± 6 WT%
[2]; OXGR1 H281A
  EC50: 670 ± 60 µM
  Emax: 74±3 WT%
[2]; OXGR1 I121A
  EC50: > 1000 µM
  Emax: 15± 5 WT%
[2]; OXGR1 I172A
  EC50: > 1000 µM
  Emax: -0.93± 2 WT%
[2]; OXGR1 I285A
  EC50: > 1000 µM
  Emax: 34±5 WT%
[2]; OXGR1 L36A
  EC50: > 1000 µM
  Emax: 6.5± 8 WT%
[2]; OXGR1 L89A
  EC50: > 1000 µM
  Emax: -4.5± 2.0 WT%
[2]; OXGR1 L117A
  EC50: 500 ± 20 µM
  Emax: 63± 4 WT%
[2]; OXGR1 L124A
  EC50: > 1000 µM
  Emax: 36± 3 WT%
[2]; OXGR1 L186A
  EC50: > 1000 µM
  Emax: -4.0± 2 WT%
[2]; OXGR1 L186F
  EC50: 180 ± 50 µM
  Emax: 80± 9 WT%
[2]; OXGR1 L299P
  EC50: > 1000 µM
[2]; OXGR1 L299P, in words
  activation of OXGR1 L299P: abolished
[2]; OXGR1 M168I
  EC50: 510 ± 60 µM
  Emax: 100± 8 WT%
[2]; OXGR1 N28A
  EC50: 120 ± 30 µM
  Emax: 100± 8 WT%
[2]; OXGR1 R110A
  EC50: > 1000 µM
  Emax: 6.5± 2 WT%
[2]; OXGR1 R110E
  EC50: > 1000 µM
  Emax: -2.0± 3 WT%
[2]; OXGR1 R110Q
  EC50: > 1000 µM
  Emax: -2.8± 0.7 WT%
[2]; OXGR1 R177A
  EC50: 320 ± 90 µM
  Emax: 110± 3 WT%
[2]; OXGR1 R261A
  EC50: > 1000 µM
  Emax: 6.7± 2 WT%
[2]; OXGR1 R264A
  EC50: > 1000 µM
  Emax: 24± 3 WT%
[2]; OXGR1 R268A
  EC50: > 1000 µM
  Emax: -4.3± 4 WT%
[2]; OXGR1 R288A
  EC50: > 1000 µM
  Emax: 11±7 WT%
[2]; OXGR1 R288E
  EC50: > 1000 µM
[2]; OXGR1 R288Q
  EC50: > 1000 µM
  Emax: 14±1 WT%
[2]; OXGR1 Y40A
  EC50: > 1000 µM
  Emax: 6.9± 9 WT%
[2]; OXGR1 Y82A
  EC50: > 1000 µM
  Emax: 56± 7 WT%
[2]; OXGR1 Y93A
  EC50: > 1000 µM
  Emax: 3.3± 2 WT%
[2]; OXGR1 Y284A
  EC50: > 1000 µM
  Emax: -9±2 WT%
FFAR3
  activation of FFAR3: no detectable activation
[3]
  Emax: 15 ± 2%
